# Assay results as given in patent US20110263526A1, “Nitric Oxide Releasing Prodrugs of Therapeutic Agents” (PIRAMAL LIFE SCIENCES LIMITED, priority 2010, published 2011).
# “Also recorded” adds a separate entry of the source.
# Experiments:
# [1] = tested on: Salmonella strains TA100, TA98, TA1535, TA1537 and TA102 and Escherichia coli strain WP2 uvrA; assay: AMES genotoxicity assay (bacterial reverse mutation test), six strains; assay type: cell-based, Salmonella typhimurium; Escherichia coli; conditions: up to 5000 μg/plate (10-5000 μg/plate)
# Source text: (§1) AMES test or bacterial reverse mutation test uses five mutant strains (i.e., TA98, TA100, TA1535, TA1537, TA102) of Salmonella typhimurium to test the mutagenicity of chemical substances (Kristien Mortelmans and Errol Zeiger, The Ames Salmonella/microsome mutagenicity assay, Mutation Research 2000, 455, 29-60 and the relevant reference cited therein). These mutants are called his mutants because of their dependence on an external source of histidine to grow. The test also uses one trp mutant strain WP2 uvrA (which needs external supply of tryptophan for its growth) of Escherichia coli (Kristein Mortelmans and Edward S. Riccio, The bacterial tryptophan reverse mutation assay with Escherichia coli WP2, Mutation Research 2000, 455, 61-69 and the relevant references cited therein). If the bacteria are incubated in the presence of a mutagen, a reverse mutation is induced, and the bacteria will grow. However, if the chemical substance is not mutagenic, there will be no reversion and thus no growth. The result is thus obtained in the absence of metabolic activation. Because many chemicals that are poor mutagens become potent mutagens after they have passed through the liver, homogenate of rat liver, called the S9 extract, are added to the bacteria before incubation. The bacteria/S9 mixture is then plated on a medium containing no histidine (use of tryptophan-deficient medium in case of E. coli strain), and the test chemical is placed in the center of the plate. The result is thus obtained in the presence of metabolic activation. A second plate that contains a non-mutagenic solvent as a negative control and a third plate that contains a known mutagen as a positive control are also run simultaneously. All the 3 types of plates (each type of plate, in fact, run simultaneously in triplicate for obtaining statistically significant data) are incubated for 48 hours at 37° C. The above procedure is called the plate incorporation method. The presence of numerous colonies of revertants in the test disk indicates a positive result: that is, the chemical substance is a mutagen (i.e., mutagenic if the increase in revertants is >2 fold for TA98, TA100, TA102 and WP2/uvrA or >3 fold for TA1535 and TA1537). Also, a positive result would be considered reliable when there is a dose-dependent increase in revertants at any two consecutive non-toxic concentrations which can be in the range of 10-5000 μg/plate. The presence of only a few spontaneous revertant colonies indicates a negative result. If a negative or equivocal result is obtained, the pre-incubation method is performed in which the cells are exposed to the test compounds for 30 min before plating. Also, before Ames test is initiated, a toxicity test on the chemical substance is performed using TA100 strain in the concentration range of 10-5000 μg/plate. […] When the test substance is found to be toxic at higher concentration range then the genotoxicity of that material is tested only in the non-toxic lower concentration range.
# TA100 = assay: Ames test: toxicity test using TA100 strain; assay type: cell-based, Salmonella typhimurium; conditions: up to 5000 μg/plate (10-5000 μg/plate)
# Source text: as §1
# [2] = tested on: carrageenan-induced rat paw edema; assay: Anti-inflammatory activity in carrageenan-induced rat paw edema model; assay type: in vivo, male Sprague-Dawley rats; conditions: for Anti-inflammatory activity (% Inhibition) @ 3 hours / Anti-inflammatory activity (% Inhibition) @ 5 hours: inhibition of paw edema vs control, Mean ± SEM, n = 8; for Anti-inflammatory activity (% Inhibition) @ 3 hours: oral dose containing 5 mg/kg of naproxen in PEG 400, 3 hours after carrageenan; for Anti-inflammatory activity (% Inhibition) @ 5 hours: oral dose containing 5 mg/kg of naproxen in PEG 400, 5 hours after carrageenan
# Description: […] […] One hour later, carrageenan (100 μl, 1% w/v) was injected in to their paws. The control group received PEG 400 (1 ml/kg).
# rats = assay: Ulcerogenic activity (gastric ulcer lesions) in rats; assay type: in vivo; conditions: dose containing 100 mg/kg of naproxen; for Gastric ulcers (Mean ± SEM) (mm^2) @ 100 mg/kg eq. @ 5 hours: overnight fasted rats, sacrificed after 5 h, total area of lesions; for Ulcer development (in words): rats, 5 h
# Description: The animals were sacrificed after 5 h of drug administration. The stomachs of the animals treated were separated, perfused with 2% formalin (10 ml), and then a large curvature was excised. The severity of the mucosal damage was assessed on the basis of the size of the observed ulcer lesions in the images captured using a stereomicroscope attached to a digital camera (Stemi 2000, Zeiss, Germany). The Image Pro Plus software (version 5.1) was used to quantify the hemorrhagic/ulcer lesions in pixels and converted into mm^2. The total area of lesions were calculated for each treatment group and the measure of gastric ulcers (Mean±SEM) (mm^2) presented in Table 3.
Structure (SMILES),melting point,Genotoxicity to 6 strains [1],Toxicity to TA100 (TA100),also measured
"CC(=O)Nc1ccc(OC(=O)c2ccc(COC(=O)OC(C)O[N+](=O)[O-])cc2)cc1 (centres unmarked) [HD5-L20-R1, 4-Acetamidophenyl 4-(((1-(nitrooxy)ethoxy)carbonyloxy)methyl)benzoate]",149 to 152 °C,,,
"CCCCc1nc(Cl)c(COC(=O)c2ccc(COC(=O)OC(C)O[N+](=O)[O-])cc2)n1Cc1ccc(-c2ccccc2-c2nnn[nH]2)cc1 (centres unmarked) [HD6-L20-R1, (1-((2′-(1H-Tetrazol-5-yl)biphenyl-4-yl)methyl)-2-butyl-4-chloro-1H-imidazol-5-yl)methyl 4-(((1-(nitrooxy)ethoxy)carbonyloxy)methyl)benzoate]",107 to 109 °C,,,
"COc1ccc2cc([C@H](C)C(=O)OCCSSCCOC(=O)OC(C)O[N+](=O)[O-])ccc2c1 (stereo partly drawn) [I-CD1-L1-R1, (2S)-2-((2-((1-(nitrooxy)ethoxy)carbonyloxy)ethyl)disulfanyl)ethyl 2-(6-methoxynaphthalen-2-yl)propanoate]",,non-mutagenic in all the aforementioned six bacterial strains; also recorded: Non-genotoxic,non-toxic to TA100,
"COc1ccc2cc([C@H](C)C(=O)OC/C=C\COC(=O)OC(C)O[N+](=O)[O-])ccc2c1 (stereo partly drawn) [I-CD1-L2-R1, (2S)-((Z)-4-((1-(nitrooxy)ethoxy)carbonyloxy)but-2-enyl) 2-(6-methoxynaphthalen-2-yl)propanoate]",76 to 78 °C,non-mutagenic in all the aforementioned six bacterial strains; also recorded: Non-genotoxic,non-toxic to TA100,"Anti-inflammatory activity (in words) ([2]; carrageenan-induced rat paw edema model, dose containing 5 mg/kg of naproxen): anti-inflammatory activity comparable to that of naproxen; Anti-inflammatory activity (% Inhibition) @ 3 hours [2]: 54.27 ± 5.31%; Anti-inflammatory activity (% Inhibition) @ 5 hours [2]: 36.61 ± 8.92%; Gastric ulcers (Mean ± SEM) (mm^2) @ 100 mg/kg eq. @ 5 hours (rats): 0 ± 0 mm^2; Ulcer development (in words) (rats): none of the animals treated with the nitric oxide releasing prodrug of naproxen, I-CD1-L2-R1 showed any signs of development of ulcers"
"COc1ccc2cc([C@H](C)C(=O)OCCCOC(=O)OC(C)O[N+](=O)[O-])ccc2c1 (stereo partly drawn) [I-CD1-L4-R1, (2S)-3-((1-(nitrooxy)ethoxy)carbonyloxy)propyl 2-(6-methoxynaphthalen-2-yl) propanoate]",,non-mutagenic in all the aforementioned six bacterial strains; also recorded: Non-genotoxic,non-toxic to TA100,
"COc1ccc2cc([C@H](C)C(=O)OCC[S+]([O-])CCOC(=O)OC(C)O[N+](=O)[O-])ccc2c1 (stereo partly drawn) [I-CD1-L16-R1, (2S)-2-(2-((1-(nitrooxy)ethoxy)carbonyloxy)ethylsulfinyl)ethyl 2-(6-methoxynaphthalen-2-yl)propanoate]",112 to 115 °C,non-mutagenic in all the aforementioned six bacterial strains; also recorded: Non-genotoxic,non-toxic to TA100,
"COc1ccc2cc([C@H](C)C(=O)OCCS(=O)(=O)CCOC(=O)OC(C)O[N+](=O)[O-])ccc2c1 (stereo partly drawn) [I-CD1-L17-R1, (2S)-2-(2-((1-(nitrooxy)ethoxy)carbonyloxy)ethylsulfonyl)ethyl 2-(6-methoxynaphthalen-2-yl)propanoate]",98 to 100 °C,Non-mutagenic with TA 1535,Non-toxic,
"COc1ccc2cc([C@H](C)C(=O)OCCCSCCCOC(=O)OC(C)O[N+](=O)[O-])ccc2c1 (stereo partly drawn) [I-CD1-L18-R1, (2S)-3-(3-((1-(nitrooxy)ethoxy)carbonyloxy)propylthio)propyl 2-(6-methoxynaphthalen-2-yl)propanoate]",,non-mutagenic in all the aforementioned six bacterial strains; also recorded: Non-genotoxic,non-toxic to TA100,
"CC(OC(=O)OC/C=C\COC(=O)C[C@H](O)C[C@H](O)CCn1c(-c2ccc(F)cc2)c(-c2ccccc2)c(C(=O)Nc2ccccc2)c1C(C)C)O[N+](=O)[O-] (stereo partly drawn) [I-CD8-L2-R1, (3R,5R)-((Z)-4-((1-(nitrooxy)ethoxy)carbonyloxy)but-2-enyl) 7-(2-(4-fluorophenyl)-5-isopropyl-3-phenyl-4-(phenylcarbamoyl)-1H-pyrrol-1-yl)-3,5-dihydroxyheptanoate]",56 to 58 °C,,,
CCCC1O[C@@H]2C[C@H]3[C@@H]4CCC5=CC(=O)C=C[C@]5(C)[C@H]4[C@@H](O)C[C@]3(C)[C@]2(C(=O)COC(=O)c2ccc(COC(=O)OC(C)O[N+](=O)[O-])cc2)O1 (some centres unmarked) [I-HD4-L20-R1],,Non-mutagenic with TA 1535,Non-toxic,
"COc1ccc2cc([C@H](C)C(=O)O)ccc2c1 [Naproxen, naproxen, reference compound]",,,,Anti-inflammatory activity (% Inhibition) @ 3 hours [2]: 65.45 ± 5.84%; Anti-inflammatory activity (% Inhibition) @ 5 hours [2]: 49.09 ± 10.35%; Gastric ulcers (Mean ± SEM) (mm^2) @ 100 mg/kg eq. @ 5 hours (rats): 75 ± 13 mm^2; Ulcer development (in words) (rats): severe haemorrhagic lesions
